From US9833497B2, “Human originated EGF domain proteins and use of the same” (CHENGDU SOURCEBIO LIMITED-LIABILITY COMPANY, priority 2013, dated 2017)

Tests used:
Assay type in all cases: cell-based
E. coli DH5α = assay: Antibacterial activity: MIC and growth curve against E. coli DH5α in 96-well plate; details: minimal inhibitory concentration against E. coli DH5α; 96-well plate, 5×10^5 CFU/mL, 37° C., judged after 8 h
Procedure, shortened: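 MIC taken as lowest protein level with no bacterial growth, tracked by A600 every 30 min during 37 °C, 175 rpm culture. Two-fold protein series 50-12.5 μg/mL final, triplicate wells, against 5×10^5 CFU/mL of LB-washed mid-log cells.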

E. coli BL21 = assay: MIC against Gram-negative bacteria: E. coli BL21; details: for MIC / MIC against E. coli BL21 / MIC (μg/mL) E. coli BL21: E. coli BL21
Procedure, shortened: (§1)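 Broth microdilution, LB medium, final inoculum 5×10^5 CFU/mL from McFarland 0.5 cultures. Recombinant human EGF domain proteins tested in two-fold steps, n=3. MIC: lowest concentration, no growth.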

Pseudomonas aeruginosa = assay: MIC against Gram-negative bacteria: Pseudomonas aeruginosa; details: for MIC / MIC (μg/mL) P. aeruginosa: P. aeruginosa; for MIC against P. aeruginosa: Pseudomonas aeruginosa
Procedure, shortened: as §1

Klebsiella pneumonia = assay: MIC against Gram-negative bacteria: Klebsiella pneumonia; details: for MIC / MIC (μg/mL) K. pneumonia: K. pneumonia; for MIC against K. pneumonia: Klebsiella pneumonia
Procedure, shortened: as §1

Enterobacter cloacae = assay: MIC against Gram-negative bacteria: Enterobacter cloacae; details: for MIC / MIC (μg/mL) E. cloacae: E. cloacae; for MIC against E. cloacae: Enterobacter cloacae
Procedure, shortened: as §1

Aeromonas hydrophila = assay: MIC against Gram-negative bacteria: Aeromonas hydrophila; details: for MIC / MIC (μg/mL) A. hydrophila: A. hydrophila; for MIC against A. hydrophila: Aeromonas hydrophila
Procedure, shortened: as §1

Citrobacter diversus = assay: MIC against Gram-negative bacteria: Citrobacter diversus; details: for MIC / MIC (μg/mL) C. diversus: C. diversus; for MIC against C. diversus: Citrobacter diversus
Procedure, shortened: as §1

Moraxella catarrhalis = assay: MIC against Gram-negative bacteria: Moraxella catarrhalis; details: for MIC / MIC (μg/mL) M. catarrhalis: M. catarrhalis; for MIC against M. catarrhalis: Moraxella catarrhalis
Procedure, shortened: as §1

Proteus mirabilis = assay: MIC against Gram-negative bacteria: Proteus mirabilis; details: for MIC / MIC (μg/mL) P. mirabilis: P. mirabilis; for MIC against P. mirabilis: Proteus mirabilis
Procedure, shortened: as §1

Proteus vulgaris = assay: MIC against Gram-negative bacteria: Proteus vulgaris; details: for MIC / MIC (μg/mL) P. vulgaris: P. vulgaris; for MIC against P. vulgaris: Proteus vulgaris
Procedure, shortened: as §1

Serratia marcescens = assay: MIC against Gram-negative bacteria: Serratia marcescens; details: for MIC / MIC (μg/mL) S. marcescens: S. marcescens; for MIC against S. marcescens: Serratia marcescens
Procedure, shortened: as §1

[1] = 10 h cultivation at 37° C., 5×10^5 CFU/mL
[2] = 96-well plate, 5×10^5 CFU/mL, 37° C., 10 h
[3] = 10 h cultivation at 37° C., 5×10^5 CFU/mL, two-fold serial dilution
[4] = 5×10^5 CFU/mL, 10 h cultivation at 37° C.

PRT440 (DVNECRQNVCRPDQHCKNTRGGYKCIDLCPNGMTKAENGTCI; listed as Homo sapiens)
50 µg/mL: MIC (E. coli DH5α) | MIC (Pseudomonas aeruginosa; [1]) | MIC (Enterobacter cloacae; [1]) | MIC (Citrobacter diversus; [1]) | MIC (Proteus vulgaris; [1])
12.5 µg/mL: MIC (E. coli BL21; [1]) | MIC (Klebsiella pneumonia; [1]) | MIC (Aeromonas hydrophila; [1]) | MIC (Moraxella catarrhalis; [1])
25 µg/mL: MIC (Proteus mirabilis; [1]) | MIC (Serratia marcescens; [1])

PRT1217 (EITACFPNPCRNGGSCDPIGNTFICNCKAGLTGVTCE; listed as Homo sapiens)
12.5 µg/mL: MIC against E. coli BL21 (E. coli BL21; [2]) | MIC against K. pneumonia (Klebsiella pneumonia; [2]) | MIC against M. catarrhalis (Moraxella catarrhalis; [2]) | MIC against S. marcescens (Serratia marcescens; [2])
50 µg/mL: MIC (E. coli DH5α) | MIC against P. aeruginosa (Pseudomonas aeruginosa; [2]) | MIC against A. hydrophila (Aeromonas hydrophila; [2]) | MIC against P. mirabilis (Proteus mirabilis; [2])
25 µg/mL: MIC against E. cloacae (Enterobacter cloacae; [2]) | MIC against C. diversus (Citrobacter diversus; [2]) | MIC against P. vulgaris (Proteus vulgaris; [2])

PRT429 (DVNECEAQRCSQECANIYGSYQCYCRQGYQLAEDGHTCT; listed as Homo sapiens)
50 µg/mL: MIC (Pseudomonas aeruginosa; [1]) | MIC (Enterobacter cloacae; [1]) | MIC (Citrobacter diversus; [1]) | MIC (Proteus vulgaris; [1])
25 µg/mL: MIC (Proteus mirabilis; [1]) | MIC (Serratia marcescens; [1])
12.5 µg/mL: MIC (E. coli DH5α) | MIC (E. coli BL21; [1]) | MIC (Klebsiella pneumonia; [1]) | MIC (Aeromonas hydrophila; [1]) | MIC (Moraxella catarrhalis; [1])

PRT907 (PSVSCEVAAQRQGVDVARLCQHGGLCVDAGNTHHCRCQAGYTGSYCE; listed as Homo sapiens)
25 µg/mL: MIC (E. coli DH5α) | MIC (Klebsiella pneumonia; 10 h cultivation at 37° C.) | MIC (Proteus mirabilis; 10 h cultivation at 37° C.) | MIC (Proteus vulgaris; 10 h cultivation at 37° C.)
12.5 µg/mL: MIC (E. coli BL21; 10 h cultivation at 37° C.) | MIC (Pseudomonas aeruginosa; 10 h cultivation at 37° C.) | MIC (Enterobacter cloacae; 10 h cultivation at 37° C.) | MIC (Aeromonas hydrophila; 10 h cultivation at 37° C.) | MIC (Citrobacter diversus; 10 h cultivation at 37° C.) | MIC (Moraxella catarrhalis; 10 h cultivation at 37° C.) | MIC (Serratia marcescens; 10 h cultivation at 37° C.)

PRT1136 (KQQFCQESLSSEFCSGHGKCLSEAWSKTYSCHCQPPFSGKYCQ; listed as Homo sapiens)
12.5 µg/mL: MIC E. coli BL21 (E. coli BL21; [3]) | MIC K. pneumonia (Klebsiella pneumonia; [3]) | MIC A. hydrophila (Aeromonas hydrophila; [3]) | MIC M. catarrhalis (Moraxella catarrhalis; [3]) | MIC S. marcescens (Serratia marcescens; [3])
50 µg/mL: MIC (E. coli DH5α) | MIC P. aeruginosa (Pseudomonas aeruginosa; [3]) | MIC E. cloacae (Enterobacter cloacae; [3]) | MIC C. diversus (Citrobacter diversus; [3]) | MIC P. vulgaris (Proteus vulgaris; [3])
25 µg/mL: MIC P. mirabilis (Proteus mirabilis; [3])

PRT1314 (ARNPCTDGHRGGCSEHANCLSTGLNTRRCECHAGYVGDGLQCL; listed as Homo sapiens)
50 µg/mL: MIC against E. coli BL21 (E. coli BL21; [2]) | MIC against K. pneumonia (Klebsiella pneumonia; [2]) | MIC against A. hydrophila (Aeromonas hydrophila; [2])
12.5 µg/mL: MIC (E. coli DH5α) | MIC against P. aeruginosa (Pseudomonas aeruginosa; [2]) | MIC against E. cloacae (Enterobacter cloacae; [2]) | MIC against C. diversus (Citrobacter diversus; [2]) | MIC against M. catarrhalis (Moraxella catarrhalis; [2]) | MIC against P. mirabilis (Proteus mirabilis; [2]) | MIC against P. vulgaris (Proteus vulgaris; [2]) | MIC against S. marcescens (Serratia marcescens; [2])

PRT1357 (GQHSCPSDCNNLGQCVSGRCICNEGYSGEDCS; listed as Homo sapiens)
50 µg/mL: MIC (E. coli DH5α) | MIC against K. pneumonia (Klebsiella pneumonia; [4]) | MIC against C. diversus (Citrobacter diversus; [4]) | MIC against P. vulgaris (Proteus vulgaris; [4])
25 µg/mL: MIC against P. aeruginosa (Pseudomonas aeruginosa; [4]) | MIC against E. cloacae (Enterobacter cloacae; [4])
100 µg/mL: MIC against A. hydrophila (Aeromonas hydrophila; [4])
12.5 µg/mL: MIC against E. coli BL21 (E. coli BL21; [4]) | MIC against M. catarrhalis (Moraxella catarrhalis; [4]) | MIC against P. mirabilis (Proteus mirabilis; [4]) | MIC against S. marcescens (Serratia marcescens; [4])

PRT791 (SQECQCHNGGTCDAATGQCHCSPGYTGERCQ; listed as Homo sapiens)
25 µg/mL: MIC (μg/mL) C. diversus (Citrobacter diversus; [1]) | MIC (μg/mL) P. mirabilis (Proteus mirabilis; [1])
12.5 µg/mL: MIC (μg/mL) E. coli BL21 (E. coli BL21; [1]) | MIC (μg/mL) K. pneumonia (Klebsiella pneumonia; [1]) | MIC (μg/mL) A. hydrophila (Aeromonas hydrophila; [1]) | MIC (μg/mL) P. vulgaris (Proteus vulgaris; [1]) | MIC (μg/mL) S. marcescens (Serratia marcescens; [1])
50 µg/mL: MIC (E. coli DH5α) | MIC (μg/mL) P. aeruginosa (Pseudomonas aeruginosa; [1]) | MIC (μg/mL) E. cloacae (Enterobacter cloacae; [1]) | MIC (μg/mL) M. catarrhalis (Moraxella catarrhalis; [1])

PRT1472 (LEHPCASLCCGHGTCIDGIGSFSCDCRSGWEGRFCQ; listed as Homo sapiens)
50 µg/mL: MIC (E. coli DH5α) | MIC against E. coli BL21 (E. coli BL21; [4]) | MIC against S. marcescens (Serratia marcescens; [4])
12.5 µg/mL: MIC against E. cloacae (Enterobacter cloacae; [4]) | MIC against C. diversus (Citrobacter diversus; [4]) | MIC against P. mirabilis (Proteus mirabilis; [4])
25 µg/mL: MIC against P. aeruginosa (Pseudomonas aeruginosa; [4]) | MIC against K. pneumonia (Klebsiella pneumonia; [4]) | MIC against A. hydrophila (Aeromonas hydrophila; [4]) | MIC against M. catarrhalis (Moraxella catarrhalis; [4]) | MIC against P. vulgaris (Proteus vulgaris; [4])

PRT785 (IHTCNCHNGAFCSAYDGECKCTPGWTGLYCT; listed as Homo sapiens)
25 µg/mL: MIC (E. coli DH5α) | MIC (μg/mL) P. aeruginosa (Pseudomonas aeruginosa; [1]) | MIC (μg/mL) K. pneumonia (Klebsiella pneumonia; [1]) | MIC (μg/mL) M. catarrhalis (Moraxella catarrhalis; [1]) | MIC (μg/mL) P. vulgaris (Proteus vulgaris; [1])
50 µg/mL: MIC (μg/mL) E. coli BL21 (E. coli BL21; [1]) | MIC (μg/mL) A. hydrophila (Aeromonas hydrophila; [1]) | MIC (μg/mL) P. mirabilis (Proteus mirabilis; [1]) | MIC (μg/mL) S. marcescens (Serratia marcescens; [1])
12.5 µg/mL: MIC (μg/mL) E. cloacae (Enterobacter cloacae; [1]) | MIC (μg/mL) C. diversus (Citrobacter diversus; [1])
